# Measurements taken from patent publication US8063220B2, “Sulfonyl-quinoline derivatives” (Richter Gedeon Nyrt., priority 2007, dated 2011).
# How the values were obtained:
# [1] = target: T1, rat mGluR1 (Rattus norvegicus, UniProt P23385); test: MGluR1 receptor binding test ([3H]R214127 displacement, rat cerebellar membrane preparation); conditions: rat mGluR1, [3H]R214127 3 nM; read-out: mGlu1 Ki
# T1 construct: rat cerebellar membrane preparation was used; from tissue; host or cells: rat cerebellum (membrane preparation)
# T1 sequence (P23385 19-1199): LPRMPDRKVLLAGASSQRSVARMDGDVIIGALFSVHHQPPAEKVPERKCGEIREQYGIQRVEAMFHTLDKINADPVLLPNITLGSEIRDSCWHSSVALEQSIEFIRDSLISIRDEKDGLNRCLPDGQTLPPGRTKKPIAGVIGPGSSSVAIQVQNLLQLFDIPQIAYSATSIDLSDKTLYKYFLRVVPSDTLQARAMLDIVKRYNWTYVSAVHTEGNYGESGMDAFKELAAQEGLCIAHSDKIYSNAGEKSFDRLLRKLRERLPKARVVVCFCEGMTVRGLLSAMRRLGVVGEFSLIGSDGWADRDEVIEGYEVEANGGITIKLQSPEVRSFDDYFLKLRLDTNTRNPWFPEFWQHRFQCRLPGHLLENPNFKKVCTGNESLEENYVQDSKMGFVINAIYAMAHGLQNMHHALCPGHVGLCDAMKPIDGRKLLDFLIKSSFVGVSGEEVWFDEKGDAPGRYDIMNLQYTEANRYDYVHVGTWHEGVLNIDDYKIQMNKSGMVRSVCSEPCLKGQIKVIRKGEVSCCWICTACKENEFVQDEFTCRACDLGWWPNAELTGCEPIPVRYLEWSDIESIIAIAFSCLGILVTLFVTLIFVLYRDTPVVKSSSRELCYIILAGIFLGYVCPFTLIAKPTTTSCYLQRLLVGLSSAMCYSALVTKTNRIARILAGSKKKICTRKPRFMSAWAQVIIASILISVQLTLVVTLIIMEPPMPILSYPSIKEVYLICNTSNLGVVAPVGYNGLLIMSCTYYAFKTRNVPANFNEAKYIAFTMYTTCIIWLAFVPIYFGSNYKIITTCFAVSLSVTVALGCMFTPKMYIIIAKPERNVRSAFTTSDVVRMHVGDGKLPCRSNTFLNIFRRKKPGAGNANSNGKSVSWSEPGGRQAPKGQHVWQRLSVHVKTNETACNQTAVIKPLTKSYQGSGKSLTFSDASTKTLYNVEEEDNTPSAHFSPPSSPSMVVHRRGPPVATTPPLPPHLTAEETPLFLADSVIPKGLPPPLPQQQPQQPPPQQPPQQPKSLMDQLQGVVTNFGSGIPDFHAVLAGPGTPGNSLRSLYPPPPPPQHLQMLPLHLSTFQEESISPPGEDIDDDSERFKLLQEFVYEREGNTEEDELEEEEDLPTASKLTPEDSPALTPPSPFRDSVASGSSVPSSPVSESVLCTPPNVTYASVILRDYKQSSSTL
# Protocol: MGluR1 receptor binding tests were performed according to modified method of Lavreysen et al. (Mol. Pharm., 2003, 63, 1082). Based on the high homology between the human and rat mGluR1 receptors, rat cerebellar membrane preparation was used to determine the binding characteristics of reference compounds and novel compounds to the rat mGluR1. [3H]R214127 (3 nM) was used as radioligand and the nonspecific binding was determined in the presence of 1 μM of R214127.
# IC-50 values were determined from displacement curves by nonlinear regression analysis and were converted to Ki values using the equation method of Cheng and Prusoff (Biochem. Pharmacol., 1973, 22, 3099).
# [2] = target: T2, rat mGluR5 (Rattus norvegicus, UniProt P31424); test: MGluR5 receptor binding test ([3H]-M-MPEP displacement, rat cerebro-cortical membrane preparation); conditions: rat mGluR5, [3H]-M-MPEP 2 nM; read-out: mGlu5 Ki
# T2 construct: Rat cerebro-cortical membrane preparation was used; from tissue; host or cells: rat cerebral cortex (membrane preparation)
# T2 sequence (P31424 21-1203): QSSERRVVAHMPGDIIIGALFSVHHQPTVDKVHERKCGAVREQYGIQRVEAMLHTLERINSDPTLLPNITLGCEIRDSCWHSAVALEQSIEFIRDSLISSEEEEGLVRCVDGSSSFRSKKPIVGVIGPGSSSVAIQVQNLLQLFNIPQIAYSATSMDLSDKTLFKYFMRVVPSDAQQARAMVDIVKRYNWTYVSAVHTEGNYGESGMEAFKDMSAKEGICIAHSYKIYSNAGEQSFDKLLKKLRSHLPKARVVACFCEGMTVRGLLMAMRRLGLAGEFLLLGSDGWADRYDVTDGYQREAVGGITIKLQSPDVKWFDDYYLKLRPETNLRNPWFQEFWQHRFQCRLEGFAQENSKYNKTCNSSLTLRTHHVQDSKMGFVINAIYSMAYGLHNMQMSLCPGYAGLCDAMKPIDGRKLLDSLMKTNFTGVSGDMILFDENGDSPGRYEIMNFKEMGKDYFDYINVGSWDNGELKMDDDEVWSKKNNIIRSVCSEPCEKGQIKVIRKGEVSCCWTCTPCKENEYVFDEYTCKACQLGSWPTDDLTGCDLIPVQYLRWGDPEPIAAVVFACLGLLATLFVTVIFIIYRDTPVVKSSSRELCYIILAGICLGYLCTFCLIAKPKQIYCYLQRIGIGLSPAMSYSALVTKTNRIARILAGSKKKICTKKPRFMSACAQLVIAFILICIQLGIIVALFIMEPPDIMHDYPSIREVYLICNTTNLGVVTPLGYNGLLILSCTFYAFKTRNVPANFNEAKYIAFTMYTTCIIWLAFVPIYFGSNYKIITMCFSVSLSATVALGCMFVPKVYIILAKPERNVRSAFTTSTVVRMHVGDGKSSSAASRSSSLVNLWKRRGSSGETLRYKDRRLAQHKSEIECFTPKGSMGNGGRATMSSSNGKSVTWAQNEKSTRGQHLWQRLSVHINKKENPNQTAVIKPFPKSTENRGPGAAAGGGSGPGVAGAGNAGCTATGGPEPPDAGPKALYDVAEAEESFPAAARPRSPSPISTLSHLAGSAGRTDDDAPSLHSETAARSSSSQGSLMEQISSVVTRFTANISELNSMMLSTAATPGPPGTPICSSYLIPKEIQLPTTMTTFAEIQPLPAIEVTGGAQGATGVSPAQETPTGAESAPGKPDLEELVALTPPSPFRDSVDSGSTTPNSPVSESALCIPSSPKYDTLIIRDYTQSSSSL
# Protocol: Rat cerebro-cortical membrane preparation was used to determine the binding characteristics of reference compounds and novel compounds to the rat mGluR5. The A18 cell line expressing hmGluR5a (purchased from Euroscreen) was used to determine binding characteristics of the chemical compounds to the human mGluR5a receptor. [3H]-M-MPEP (2 nM) was used as radioligand. The nonspecific binding was determined in the presence of 10 μM M-MPEP.
Ki [1] [nM],Ki [2] [nM],Compound
200 to 500,< 200,O=S(=O)(c1cc(Cl)cc(Cl)c1)c1cnc2cc(F)ccc2c1-c1ccc(Cl)cc1 [Compound 157]
> 500,< 200,N#Cc1cc(F)cc(S(=O)(=O)c2cnc3cc(F)ccc3c2-c2cccc(Cl)c2)c1 [Compound 244]
> 500,< 200,Cc1ccc(S(=O)(=O)c2cnc3ccc(F)cc3c2-c2cccc(F)c2)cc1Cl [Compound 140]
> 500,< 200,COc1ccc(-c2c(S(=O)(=O)c3cc(Cl)cc(Cl)c3)cnc3cc(F)ccc23)cc1 [Compound 81]
> 500,< 200,COc1ccc(S(=O)(=O)c2cnc3ccc(F)cc3c2-c2cccc(F)c2)cc1Cl [Compound 79]
> 500,> 500,COc1ccc(S(=O)(=O)c2cnc3ccc(F)cc3c2-c2ccc(F)cc2)cc1Cl [Compound 165]
200 to 500,< 200,O=S(=O)(c1ccc(F)cc1)c1cnc2c(F)cccc2c1-c1ccc(Cl)cc1 [Compound 21]
> 500,< 200,N#Cc1cccc(S(=O)(=O)c2cnc3ccccc3c2-c2cccc(Cl)c2)c1 [Compound 265]
> 500,< 200,Cc1ccc(S(=O)(=O)c2cnc3ccc(F)cc3c2-c2cccc(F)c2)cc1C [Compound 146]
< 200,< 200,O=S(=O)(c1ccc(F)c(F)c1)c1cnc2c(F)cccc2c1-c1cccc(F)c1 [Compound 121]
200 to 500,< 200,O=S(=O)(c1cc(Cl)cc(Cl)c1)c1cnc2cc(Cl)ccc2c1-c1cccc(Cl)c1 [Compound 263]
200 to 500,< 200,O=S(=O)(c1cccc(F)c1)c1cnc2c(F)cccc2c1-c1cccc(F)c1 [Compound 60]
200 to 500,< 200,N#Cc1cccc(S(=O)(=O)c2cnc3ccc(F)cc3c2-c2cccc(F)c2)c1 [Compound 67]
200 to 500,< 200,O=S(=O)(c1cc(Cl)cc(Cl)c1)c1cnc2cc(Cl)ccc2c1-c1ccccc1F [Compound 255]
> 500,< 200,O=S(=O)(c1cc(Cl)cc(Cl)c1)c1cnc2ccc(F)cc2c1-c1cccc(Cl)c1 [Compound 160]
> 500,200 to 500,O=S(=O)(c1ccc(F)cc1)c1cnc2ccc(F)cc2c1-c1ccc(Cl)cc1 [Compound 25]
> 500,< 200,COc1ccc(-c2c(S(=O)(=O)c3ccc(C)c(C)c3)cnc3cc(F)ccc23)cc1 [Compound 77]
200 to 500,< 200,O=S(=O)(c1cccc(F)c1)c1cnc2c(F)cccc2c1-c1cccc(Cl)c1 [Compound 58]
> 500,< 200,Cc1ccc(S(=O)(=O)c2cnc3c(F)cccc3c2-c2cccc(Cl)c2)cc1F [Compound 109]
> 500,< 200,O=S(=O)(c1cccc(F)c1)c1cnc2cc(Cl)ccc2c1-c1ccc(F)cc1 [Compound 180]
> 500,< 200,COc1cccc(-c2c(S(=O)(=O)c3cccc(C#N)c3)cnc3cc(F)ccc23)c1 [Compound 93]

Ki [1] [nM],Ki [2] [nM],Compound
200 to 500,< 200,O=S(=O)(c1ccc(F)cc1)c1cnc2c(F)cccc2c1-c1cccc(F)c1 [Compound 22]
> 500,> 500,O=S(=O)(c1ccc(F)cc1)c1cnc2ccc(F)cc2c1-c1cccc(Cl)c1 [Compound 24]
< 200,< 200,O=S(=O)(c1cc(F)cc(F)c1)c1cnc2c(F)cccc2c1-c1ccc(F)cc1 [Compound 119]
> 500,< 200,"COc1cccc(-c2c(S(=O)(=O)c3cccc(C#N)c3)cnc3ccc(F)cc23)c1 [Compound 68, 3-(3-cyano-benzenesulfonyl)-6-fluoro-4-(3-methoxy-phenyl)-quinoline]"
> 500,< 200,N#Cc1cc(S(=O)(=O)c2cnc3cc(F)ccc3c2-c2cccc(Cl)c2)ccc1F [Compound 235]
> 500,> 500,O=S(=O)(c1cc(F)cc(F)c1)c1cnc2cc(Cl)c(F)cc2c1-c1ccc(Cl)cc1 [Compound 201]
> 500,> 500,COc1cccc(-c2c(S(=O)(=O)c3cccc(Cl)c3)cnc3ccc(F)cc23)c1 [Compound 34]
200 to 500,200 to 500,O=S(=O)(c1cc(F)cc(F)c1)c1cnc2ccc(F)cc2c1-c1cccc(F)c1 [Compound 65]
> 500,< 200,COc1cccc(-c2c(S(=O)(=O)c3cc(F)cc(F)c3)cnc3cc(F)ccc23)c1 [Compound 90]
< 200,< 200,N#Cc1cccc(S(=O)(=O)c2cnc3cc(Cl)ccc3c2-c2cccc(F)c2)c1 [Compound 234]
200 to 500,< 200,N#Cc1cccc(S(=O)(=O)c2cnc3cc(Cl)ccc3c2-c2cccc(Cl)c2)c1 [Compound 254]
> 500,> 500,O=S(=O)(c1cc(F)cc(F)c1)c1cnc2ccc(F)cc2c1-c1cccc(Cl)c1 [Compound 64]
> 500,< 200,N#Cc1cccc(S(=O)(=O)c2cnc3c(F)cccc3c2-c2cccc(F)c2)c1 [Compound 215]
> 500,< 200,O=S(=O)(c1ccc(F)c(F)c1)c1cnc2cc(F)ccc2c1-c1ccc(F)c(F)c1 [Compound 251]
> 500,200 to 500,COc1cccc(-c2c(S(=O)(=O)c3cc(F)cc(F)c3)cnc3ccc(F)cc23)c1 [Compound 134]
> 500,< 200,COc1ccc(-c2c(S(=O)(=O)c3ccc(OC)cc3)cnc3ccc(F)cc23)cc1 [Compound 163]
> 500,< 200,N#Cc1cc(F)cc(S(=O)(=O)c2cnc3cc(F)ccc3c2-c2ccc(F)cc2)c1 [Compound 218]
200 to 500,< 200,O=S(=O)(c1cc(Cl)cc(Cl)c1)c1cnc2c(F)cccc2c1-c1cccc(Cl)c1 [Compound 158]
> 500,200 to 500,O=S(=O)(c1ccc(Cl)s1)c1cnc2cc(Cl)ccc2c1-c1ccc(F)cc1 [Compound 187]
200 to 500,< 200,N#Cc1cc(F)cc(S(=O)(=O)c2cnc3cc(Cl)ccc3c2-c2cccc(Cl)c2)c1 [Compound 250]
> 500,> 500,O=S(=O)(c1cccc(F)c1)c1cnc2ccc(F)cc2c1-c1ccc(Cl)cc1 [Compound 32]

Ki [1] [nM],Ki [2] [nM],Compound
> 500,< 200,O=S(=O)(c1ccc(F)c(F)c1)c1cnc2cc(F)ccc2c1-c1ccccc1F [Compound 261]
200 to 500,–,O=S(=O)(c1cc(Cl)cc(Cl)c1)c1cnc2cc(F)ccc2c1-c1ccc(F)cc1 [Compound 83]
> 500,< 200,O=S(=O)(c1cc(F)cc(F)c1)c1cnc2c(F)cccc2c1-c1cccc(F)c1 [Compound 51]
200 to 500,< 200,O=S(=O)(c1cccc(F)c1)c1cnc2c(F)cccc2c1-c1ccc(F)cc1 [Compound 63]
200 to 500,< 200,N#Cc1cccc(S(=O)(=O)c2cnc3ccc(F)cc3c2-c2cccc(Cl)c2)c1 [Compound 135]
200 to 500,< 200,"Cc1ccc(S(=O)(=O)c2cnc3ccccc3c2-c2ccc(Cl)cc2)cc1 [Compound 1, 4-(4-chloro-phenyl)-3-(4-methyl-benzenesulfonyl)-quinoline]"
> 500,200 to 500,COc1ccc(S(=O)(=O)c2cnc3cc(F)ccc3c2-c2ccc(F)cc2)cc1 [Compound 14]
> 500,< 200,Cc1ccc(S(=O)(=O)c2cnc3ccc(F)cc3c2-c2ccc(F)cc2)cc1C [Compound 148]
> 500,200 to 500,COc1ccc(-c2c(S(=O)(=O)c3cccc(F)c3)cnc3cc(F)ccc23)cc1 [Compound 42]
> 500,> 500,COc1ccc(-c2c(S(=O)(=O)c3ccc(F)cc3)cnc3ccc(F)cc23)cc1 [Compound 27]
> 500,< 200,N#Cc1cc(F)cc(S(=O)(=O)c2cnc3ccccc3c2-c2ccc(F)cc2)c1 [Compound 271]
> 500,200 to 500,O=S(=O)(c1cc(F)cc(F)c1)c1cnc2cc(Cl)c(F)cc2c1-c1ccc(F)cc1 [Compound 202]
> 500,< 200,O=S(=O)(c1cccc(F)c1)c1cnc2cc(Cl)ccc2c1-c1ccc(Cl)cc1 [Compound 173]
> 500,< 200,N#Cc1cc(F)cc(S(=O)(=O)c2cnc3ccccc3c2-c2ccc(F)c(F)c2)c1 [Compound 266]
200 to 500,< 200,N#Cc1cccc(S(=O)(=O)c2cnc3cc(F)ccc3c2-c2ccc(Cl)cc2)c1 [Compound 37]
200 to 500,200 to 500,O=S(=O)(c1ccc(F)c(F)c1)c1cnc2ccc(F)cc2c1-c1cccc(Cl)c1 [Compound 149]
> 500,< 200,O=S(=O)(c1ccc(F)c(F)c1)c1cnc2c(F)c(Cl)ccc2c1-c1cccc(F)c1 [Compound 196]
200 to 500,< 200,O=S(=O)(c1ccc(Cl)c(Cl)c1)c1cnc2cc(Cl)ccc2c1-c1ccc(F)c(F)c1 [Compound 248]
200 to 500,< 200,N#Cc1cccc(S(=O)(=O)c2cnc3cc(F)ccc3c2-c2cc(F)cc(F)c2)c1 [Compound 245]
